The values below come from patent US8389565B2, “Glycosidase inhibitors and methods of synthesizing same” (Simon Fraser University, priority 2000, dated 2013).

Structures can show the parent of a compound that is named as a salt. Where two headings read alike, the source gives them in different places.

Series [1] addresses Maltase Glucoamylase (MGA) (Homo sapiens, UniProt O43451). Put plainly: MGA activity in extracts of COS cells transfected with MGA5′ (maltase subunit) construct, maltose hydrolysis, glucose oxidase colorimetric assay. The format is biochemical. Set-up: COS cells transfected with MGA5′ (maltase subunit clone 10) construct were used; expressed in transfected cells; host or cells: COS cells. The settings on record: for Ki MGA (Human intestinal maltase glucoamylase): only the order of magnitude of activity (nM, μM, mM) or n.a. = not active. How it is done: In the assays, COS cells transfected with MGA5′ (maltase subunit clone 10) construct were used. Activity measurements were performed with cell extracts containing MGA. Maltose hydrolysis was monitored by measurement of the glucose released by a glucose oxidase colorimetric assay. Inhibition of this hydrolysis was measured as a reduction in OD reading.
In practice, an OD reading in the absence of the inhibitor was recorded, followed by a reading in the presence of the inhibitor. The percent reduction in OD reading upon administering a candidate inhibitor (see Table 11) was then correlated with a percent inhibition for a given concentration.

The target in series [2] is T1, Human Pancreatic α-Amylase (HPA) (Homo sapiens, UniProt P04746).
T1 sequence (P04746 16-511): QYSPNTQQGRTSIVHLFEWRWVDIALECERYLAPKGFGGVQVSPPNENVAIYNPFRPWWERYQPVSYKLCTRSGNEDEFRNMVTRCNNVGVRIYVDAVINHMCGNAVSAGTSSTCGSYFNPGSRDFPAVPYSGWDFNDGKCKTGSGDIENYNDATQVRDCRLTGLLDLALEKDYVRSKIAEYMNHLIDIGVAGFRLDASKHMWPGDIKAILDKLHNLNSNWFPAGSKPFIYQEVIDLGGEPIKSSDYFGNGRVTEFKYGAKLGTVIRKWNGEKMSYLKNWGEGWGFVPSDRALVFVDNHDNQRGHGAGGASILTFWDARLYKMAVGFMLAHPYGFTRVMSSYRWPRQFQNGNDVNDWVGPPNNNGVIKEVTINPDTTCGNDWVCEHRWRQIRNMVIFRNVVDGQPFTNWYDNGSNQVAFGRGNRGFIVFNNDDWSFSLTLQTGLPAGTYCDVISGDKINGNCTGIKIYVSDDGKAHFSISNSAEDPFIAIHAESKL
Put plainly: Human pancreatic α-amylase assay, hydrolysis of 2,4-Dinitrophenyl maltotrioside. The format is biochemical. The settings on record: for Ki: n.a. = not active. How it is done: These assays were performed with purified enzyme. The ability of candidate inhibitors to inhibit the hydrolysis of 2,4-Dinitrophenyl maltotrioside was monitored by UV-visible spectroscopy of the released 2,4-dinitrophenol.

For series [3], the system named is maltase activity in biopsies with live intestinal cells. The experiment in a line: Maltase activity in biopsies with live intestinal cells. The following applies: 5 μM concentration. The format is cell-based, human. An excerpt: • 1) It appears that Acarbose acts principally by inhibiting human pancreatic α-amylase (HPA) and the breakdown of starch.
The subject of another series is Sprague-Dawley rats. Put plainly: In vivo maltose gavage in catheterized rats: plasma glucose and insulin. Set-up: species or system rat. The following applies: maltose gavage 1000 mg/kg with 25 mg/kg drug; for decrease of the 90 minute insulin AUC: versus Control. How it is done: Five week old Sprague-Dawley rats were housed singly under a 12:12-h light-dark photoperiod and given free access to water and rat chow (Purina rodent chow). After one week of acclimation, chronic indwelling catheters were implanted.
Animals were anesthetized with a combination of Ketamine-Xylazine-Butorphanol (0.1 ml/100 g im). Analgesic (Butorphenol, 1 mg/kg sc) was administered following recovery from anesthesia and the following morning. Antibiotic was administered by one dose sc and in the drinking water for 4 days post-operative (Baytril, 5 mg/kg sc, Bayer, Toronto, Canada; Baytril, 50 mg/ml: 0.36 ml solution in 250 ml drinking water). A sterile catheter (Intramedic PE-50 with ˜3 cm beveled Silastic tip) was placed in the left carotid artery and the distal end of the catheter was tunneled subcutaneously, exteriorized, and anchored at the nape of the neck. The catheters were protected from chewing by a stainless steel tether connected to a swivel system which allowed free movement of the animal and easy access to the catheter by the investigator.
The animals were allowed to recover for 1 week. Experiments were performed on conscious, unrestrained animals that had been fasted overnight by removal of chow from the cage hoppers at 2100. At 0800 the following morning animals were weighed and Atropine (0.05 mg/kg sc) was administered as a […]. At baseline, animals were administered a bolus of maltose by oral gavage (1000 mg/kg body weight) with or without drug (25 mg/kg body weight for all agents). Blood samples (0.1 mL) were taken via the implanted carotid line at -15 and -5 min for the baseline and at 7, 15, 30, 60, 90, 120, 210, 300 min.
Blood samples were kept on ice in microcentrifuge tubes and then were centrifuged. The plasma was stored at −20° C. until it was assayed. Plasma volume was triple replaced with heparinized saline (10u/mL), but red blood cells were not reinfused. Plasma glucose was assayed with the glucose oxidase method (Trinder RAICHEM Division of Hemagen Diagnostics, Inc. San Diego, Calif.). Plasma insulin concentrations were measured by rat insulin ELISA (Crystal Chem INC, Downers Grove, Ill.). Six experiments were performed for each treatment (control, Blintol, Acarbose, Salacinol).
All data are presented as means±SE. The significance of changes in plasma glucose and insulin were tested by two-way repeated-measures analysis of variance and were performed with the Statistical Analysis System for Windows (version 6.3, SAS Institute, Cary, N.C.). AUCs were compared using unpaired t-tests.

Series [4] can be described thus: Stability on storage in aqueous solution. It counts as physicochemical.
Series [5] addresses T2, Recombinant barley α-amylase isozyme 1 (AMY1) (Hordeum vulgare, UniProt P00693).
T2 construct: made in house
Put plainly: Inhibition of barley α-amylase isozyme 1 activity towards DP17 amylose. It counts as biochemical. An excerpt:
(§1) Porcine pancreatic α-amylase (PPA) and bovine serum albumin (BSA) were purchased from Sigma. Amylose EX-1 (DP17; average degree of polymerization 17) was purchased from Hayashibara Chemical Laboratories (Okayama, Japan). Recombinant barley α-amylase isozyme 1 (AMY1) was produced and purified as described.^23 An aliquot of the porcine pancreatic x-amylase (PPA) crystalline suspension (in ammonium sulfate) was dialyzed extensively against the assay buffer without BSA. The enzyme concentration was determined by aid of amino acid analysis as determined using an LKB model Alpha Plus amino acid analyzer. […] Six different final inhibitor concentrations were used in the range 1 μM-5 mM. The inhibitor was pre-incubated with enzyme for 5 min at 37° C. before addition of substrate.

Series [6] concerns the target T3, porcine pancreatic α-amylase (PPA) (Sus scrofa, UniProt P00690).
T3 construct: purchased Sigma
T3 sequence (P00690 16-511): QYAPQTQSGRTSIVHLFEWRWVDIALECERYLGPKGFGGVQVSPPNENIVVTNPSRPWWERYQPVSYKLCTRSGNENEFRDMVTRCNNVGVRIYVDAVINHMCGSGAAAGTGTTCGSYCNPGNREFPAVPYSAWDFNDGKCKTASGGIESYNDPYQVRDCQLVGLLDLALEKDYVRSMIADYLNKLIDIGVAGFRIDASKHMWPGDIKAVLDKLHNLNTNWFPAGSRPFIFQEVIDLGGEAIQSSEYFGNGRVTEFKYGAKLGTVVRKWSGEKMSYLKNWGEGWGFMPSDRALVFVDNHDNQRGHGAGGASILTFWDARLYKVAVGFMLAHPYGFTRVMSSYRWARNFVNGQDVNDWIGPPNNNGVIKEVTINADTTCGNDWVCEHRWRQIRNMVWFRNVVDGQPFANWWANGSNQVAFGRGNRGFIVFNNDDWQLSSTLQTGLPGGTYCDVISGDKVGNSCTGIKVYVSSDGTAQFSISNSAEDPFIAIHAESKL
The experiment in a line: Inhibition of porcine pancreatic α-amylase activity towards DP17 amylose. It counts as biochemical.
From the text: as §1

Series [7] addresses T4, glucoamylase G2 form from Aspergillus niger (Aspergillus niger, UniProt P69328).
T4 construct: purchased Novo Nordisk, Bagsvaerd, Denmark
The experiment in a line: Inhibition of glucoamylase G2-catalyzed hydrolysis of maltose. It counts as biochemical. How it is done: The glucoamylase G2 form from Aspergillus niger was purified from a commercial enzyme (Novo Nordisk, Bagsvaerd, Denmark) as described.^19,20 The initial rates of glucoamylase G2-catalyzed hydrolysis of maltose was tested with 1 mM maltose as substrate in 0.1 M sodium acetate pH 4.5 at 45° C. using an enzyme concentration of 7.0×10^−8 M and five inhibitor concentrations in the range 1 μm-5 mM. The effect of the inhibition on rates of substrate hydrolysis were compared for the different compounds.

In a further series the test system is sucrase. The following applies: cited from earlier work.
The mark [8] stands for this setting: read-out: Ki AMY1 (Barley α-amylase).
Setting [9] is: read-out: Ki PPA (Porcine pancreatic α-amylase).

T4 sequence (P69328 other isoform, or with tags, fused parts or gaps): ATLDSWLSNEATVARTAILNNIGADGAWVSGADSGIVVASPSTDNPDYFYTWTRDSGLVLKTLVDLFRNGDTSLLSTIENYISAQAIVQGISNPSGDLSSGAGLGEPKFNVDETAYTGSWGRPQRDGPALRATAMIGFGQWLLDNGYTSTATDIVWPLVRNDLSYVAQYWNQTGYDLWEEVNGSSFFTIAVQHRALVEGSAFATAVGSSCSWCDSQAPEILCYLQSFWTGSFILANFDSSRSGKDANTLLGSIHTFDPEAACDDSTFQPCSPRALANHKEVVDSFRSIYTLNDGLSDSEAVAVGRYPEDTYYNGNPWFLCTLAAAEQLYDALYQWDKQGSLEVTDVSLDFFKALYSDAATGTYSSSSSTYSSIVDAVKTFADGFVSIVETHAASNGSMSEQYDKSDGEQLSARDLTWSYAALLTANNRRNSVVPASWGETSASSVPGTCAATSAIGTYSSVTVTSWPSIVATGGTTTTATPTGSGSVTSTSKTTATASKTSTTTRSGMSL
Chain of Maltase Glucoamylase (MGA) (O43451 356-737 limits assumed): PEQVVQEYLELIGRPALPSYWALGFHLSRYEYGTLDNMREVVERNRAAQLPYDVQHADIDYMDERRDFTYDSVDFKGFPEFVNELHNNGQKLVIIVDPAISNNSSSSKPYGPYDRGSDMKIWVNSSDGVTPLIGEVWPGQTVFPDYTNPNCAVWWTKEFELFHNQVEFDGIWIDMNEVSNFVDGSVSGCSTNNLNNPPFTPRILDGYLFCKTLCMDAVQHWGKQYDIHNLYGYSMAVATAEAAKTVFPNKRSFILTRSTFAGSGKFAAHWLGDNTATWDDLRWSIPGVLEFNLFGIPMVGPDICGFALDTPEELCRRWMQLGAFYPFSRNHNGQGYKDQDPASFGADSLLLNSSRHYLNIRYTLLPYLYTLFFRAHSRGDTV
T2 sequence (P00693 25-438): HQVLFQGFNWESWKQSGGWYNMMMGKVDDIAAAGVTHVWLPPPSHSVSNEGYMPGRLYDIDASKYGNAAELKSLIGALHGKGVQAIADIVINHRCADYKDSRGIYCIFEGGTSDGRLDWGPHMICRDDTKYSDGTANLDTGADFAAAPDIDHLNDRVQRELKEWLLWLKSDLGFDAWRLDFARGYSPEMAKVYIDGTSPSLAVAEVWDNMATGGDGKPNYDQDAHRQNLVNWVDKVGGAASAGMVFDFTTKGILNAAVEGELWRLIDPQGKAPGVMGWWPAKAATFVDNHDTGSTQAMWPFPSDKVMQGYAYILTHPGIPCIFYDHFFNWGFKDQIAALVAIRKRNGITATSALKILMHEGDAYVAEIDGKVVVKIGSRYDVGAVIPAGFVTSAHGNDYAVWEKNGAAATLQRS

As usually defined, the Ki is a dissociation constant, usually derived from enzyme kinetics or from competition with a known ligand. As for `O=S(=O)([O-])O[C@H](CO)[C@@H](O)C[S@+]1C[C@@H](O)[C@H](O)[C@@H](O)C1`, the “Ki MGA (Human intestinal maltase glucoamylase)” value (“Ki MGA” below) in series [1] was “mM”. Besides, in series [2], the inhibition constant Ki was > 5000 µM.
Usually IC50 stands for the midpoint of a concentration-inhibition curve. Turning to `O=S(=O)([O-])OC(CO)C(O)C[Se+]1CC(O)C(O)C1CO` [Blintol, 1,4-Dideoxy-1,4-[[(2S,3S)-2,4-dihydroxy-3-(sulfooxy)butyl]episelenoniumylidene]-D-arabinitol Inner Salt], in series [3], the “percent inhibition of maltase activity” value is 50%. Besides, in the series on Sprague-Dawley rats, the “time at which insulin values were different from basal” value was found to be 15 min, the “time at which plasma glucose returned to basal” value is 60 min and the “decrease of the 90 minute insulin AUC” value was determined as 53%. The “15 minute glucose excursion from basal” value with Sprague-Dawley rats (mean ± SE, n=6) is 29.3 ± 6.5 mg/dL. The half-inhibitory concentration (IC50) in [1] is 0.2 µM.
With `O=S(=O)([O-])O[C@H]1[C@H](O)C(O)O[C@@H]1C[S@+]1C[C@@H](O)[C@H](O)[C@H]1CO` (stereo partly drawn) [Compound 101, 3-O-sulfoxy-5-deoxy-5-[1,4-dideoxy-1,4-episufoniumylidene-D-arabinitol]-α/β-D-arabinose inner salt], the “stability on storage in aqueous solution” value in series [4] (aqueous solution, several days at ambient temperature) is on record as “unchanged”.
Turning to `O=S(=O)([O-])O[C@@H](CO)[C@H](O)C[Se@+]1C[C@@H](O)[C@H](O)[C@H]1CO`, the inhibitory constant (Ki) in series [5], in series [6] and in [2] was > 5000 µM in each case. Further, in series [1], the “Ki MGA” value was “nM”.
Consider `O=S(=O)(O)O[C@@H](CO)[C@H](O)CN1C[C@@H](O)[C@H](O)[C@H]1CO`, for which the values for the inhibition constant Ki in series [7] (read-out: Ki GA (Glucoamylase)), in [5] (setting [8]) and in series [6] (setting [9]) were > 2500 µM, > 5000 µM and > 5000 µM, respectively. The “Ki MGA” value in series [1] is “mM”.
Consider `O=S(=O)([O-])O[C@H](CO)[C@@H](O)C[Se+]1C[C@@H](O)[C@H](O)[C@@H](O)C1` (stereo partly drawn), for which the inhibition constant Ki in series [2] is > 5000 µM.
On to `O=S(=O)([O-])O[C@@H](CO)[C@H](O)C[S@+]1C[C@@H](O)[C@H](O)[C@H]1CO`, for which the Ki is 1710 µM in series [7], 15 µM in series [5] (setting [8]), 10 µM in series [6] (setting [9]) and 75 µM in series [2].
`O=S(=O)(O)O[C@H](CO)[C@@H](O)CN1C[C@H](O)[C@@H](O)[C@H](O)[C@H]1CO` [Compound 67b, 1,5-Dideoxy-1,5-[[N-(2R,RS)-2,4-dihydroxy-3-(sulfooxy)-butyl]iminoonium]-D-glucitol]: the “stability of the 3′-sulfate ester on storage” value in [4] (D2O/NaOD at pH>10, 2 days at ambient temperature) was “completely hydrolyzed”.
The term inhibition denotes the change of the read-out against control, counted positive when it falls. On to `O=S(=O)([O-])OC(CO)C(O)C[S+]1CC(O)C(O)C1CO` [Salacinol, 1,4-Dideoxy-1,4-[[(2S,3S)-2,4-dihydroxy-3-(sulfooxy)butyl]-episulfoniumylidene]-D-arabinitol Inner Salt, reference compound], for which, in series [7], the affinity, expressed as Ki, was 1700 µM. Further, the “percent inhibition of maltase activity” value in series [3] worked out at 13%. In addition, the inhibitory constant (Ki) in series [5] (amylose DP17, pH 5.5, 37° C., read-out: Ki value, AMY1) is 15 ± 1 µM. In addition, the Ki in series [6] (amylose DP17, pH 6.9, 37° C., read-out: Ki value, PPA) came out at 10 ± 2 µM. For the same compound, in the series on Sprague-Dawley rats, the “plasma glucose profile (in words)” value is on record as “significantly lower post-prandial plasma glucose”; the “plasma insulin profile (in words)” value is “significantly lower post-prandial plasma glucose and insulin concentrations”; the “time at which insulin values were different from basal” value worked out at 15 min; the “time at which plasma glucose returned to basal” value was determined as 60 min. In addition, the “decrease of the 90 minute insulin AUC” value in the series with Sprague-Dawley rats is 65%. The “glucose Area Under the Curve, 0-90 minutes (in words)” value in the series on Sprague-Dawley rats (excursion above basal) is “slightly lower 90 minute AUC's than Acarbose”. Further, in series [1], the “inhibition of MGA (in words)” value is “inhibits both HPA and MGA”. Besides, the inhibition at 5 µM in series [1] (read-out: percent inhibition of the breakdown of maltose) was determined as 60%. Also, the “inhibition of HPA (in words)” value in [2] is “inhibits both HPA and MGA”.
`O=S(=O)([O-])O[C@H](CO)[C@@H](O)C[S@@+]1C[C@@H](O)[C@H](O)[C@@H](O)C1`: the inhibitory constant (Ki) in [2] was > 5000 µM.
For the compound `O=S(=O)(O)O[C@H](CO)[C@@H](O)CN1C[C@H](O)[C@@H](O)[C@@H]1CO`, the inhibitory constant (Ki) in [7] (read-out: Ki GA (Glucoamylase)) was > 8000 µM; in series [5] (setting [8]), > 5000 µM; in series [6] (setting [9]) it was > 5000 µM; in [2], 400 µM.
For `O=S(=O)([O-])O[C@@H]([C@H](O)[C@H](O)[C@@H](O)CO)[C@H](O)C[S+]1C[C@@H](O)[C@H](O)[C@H]1CO` (stereo partly drawn) [Kotalanol], in the series with sucrase, the “inhibitory activity against sucrase (in words)” value was “more potent inhibitory activity against sucrase than Salicinol and Acarbose”.
